Assay: gradient 5% acetonitrile 3 min, to 50% in 2 min, to 85% in 15 min, held 3 min, 100 µL/min
Conditions: column: Zorbax Extend-C18 2.1 x 50 mm; eluents: water / acetonitrile, 0.1% formic acid
Summary of the method: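 The mobile phases were water and acetonitrile, each with 0.1% formic acid, pumped at 100 μL/min through a Zorbax Extend-C18 column (2.1 × 50 mm, 1.8 μm). Pure standards were injected as mixtures of ~100 molecules and detected by a quadrupole time-of-flight mass spectrometer in positive and negative ionization mode. Retention time came from computationally picked adduct peaks, each inspected by hand.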

| SMILES | RP-LC retention time |
| --- | --- |
| CCc1ccc(S(=O)(=O)N2CCC(c3nc(C(=O)N4CCOCC4)c(C)o3)CC2)cc1 | 904 s |
| CCCn1c(=O)sc2cc(S(=O)(=O)N3CCC(C(=O)Nc4ccc(F)cc4)CC3)ccc21 | 979 s |
| COc1ccc(C(=O)N(CN2CCCC2=O)c2nccs2)cc1OC | 647 s |
| COc1ccc(-c2nc3cccc(C)n3c2Nc2ccc3c(c2)OCCO3)cc1 | 987 s |
| CCOc1cc(C(=O)Nc2cc(-c3cn4cccnc4n3)ccc2C)cc(OCC)c1OCC | 780 s |
| Cc1cc(C)cc(N2C=C(C(=O)N3CCOCC3)S(=O)(=O)c3ccccc32)c1 | 826 s |
| CCC(C)(C)C(=O)O[C@H]1C[C@@H](C)C=C2C=C[C@H](C)[C@H](CC[C@@H](O)C[C@@H](O)CC(=O)O)[C@H]21 | 1020 s |
| CCc1ccc(C(=O)c2cnc3ccc(OC)cc3c2N2CCN(CC)CC2)cc1 | 619 s |
| O=C(CCC(=O)N1CC2CCCN2c2ccccc21)NCc1ccco1 (centres undefined) | 1090 s |
| Cc1scc2nc(C(=O)NCc3ccc(F)cc3)nc(N3CCCC3)c12 | 561 s |
| O=C(Nc1nccnc1C(=O)NCc1cccnc1)c1ccccc1 | 584 s |
| NC(=O)C1CCN(C(=O)C2CCN(S(=O)(=O)Cc3ccc(F)cc3)CC2)CC1 | 644 s |
| Cc1nc(C)c(C(=O)N2CCCC(c3nnc(-c4ccc5c(c4)OCO5)o3)C2)s1 (centres undefined) | 669 s |
| CCN1CCN(CCCNC(=O)c2nnc(-c3ccc(S(=O)(=O)N4CCCC4)cc3)o2)CC1 | 581 s |
| COc1ccccc1OCCC1CCN(S(=O)(=O)Cc2ccccc2F)C1 (centres undefined) | 1030 s |
| CN(C)CCNCc1ccc(-c2cc(Cl)cc(Cl)c2)o1 | 597 s |
| Cc1ccc(-c2ccc(=O)n(Cc3noc(C(=O)N4CCC(C)CC4)n3)n2)cc1 | 977 s |
| CCc1nc(-c2nnn(-c3ccc(C)cc3)c2C)no1 | 945 s |
| Cc1cnc(CCNC(=O)NCC(C)C)n1C1CCCCCC1 | 588 s |

| SMILES | RP-LC retention time |
| --- | --- |
| CC(C)c1csc(-c2csc(S(=O)(=O)NCc3ccccc3)c2)n1 | 1040 s |
| CCOc1ccc(CC(=O)Nc2nc(-c3cccs3)cs2)cc1 | 963 s |
| CNS(=O)(=O)CCCOc1ccc2c(c1)OCO2 | 697 s |
| COc1ccc(NC(=O)c2cc(C(C)(C)C)n3nccc3n2)c(C)c1 | 1240 s |
| CCn1nc(CNC(=O)c2cncc(Br)c2)c2ccccc21 | 820 s |
| CCC(C)NC(=O)c1cc2c(s1)CCN(C(=O)c1ccc(F)cc1)C2 (centres undefined) | 804 s |
| CCOc1ccc(C2C(=O)N(C3CCCCC3)CC(=O)N2Cc2ccco2)cc1OC (centres undefined) | 879 s |
| Cn1c(=O)n(CCN2CCOCC2)c(=O)c2c1nc1n2CCCN1c1ccc(Cl)cc1 | 643 s |
| Cc1nn(C)cc1C(=O)Nc1c(C)n(C)n(-c2ccccc2)c1=O | 563 s |
| Cc1ccc(Nc2c(-c3nc(C)no3)cnc3nc(C)ccc23)c(F)c1 | 793 s |
| CC(C)NC(=O)Cn1cnc2c(sc3nc(-c4ccccc4)ccc32)c1=O | 817 s |
| COc1ccc(Cl)cc1NC(=O)Cn1c(=O)n(-c2ccc(C)cc2)c(=O)c2c1cc(C)n2C | 984 s |
| Cc1cc(C)c(S(=O)(=O)N2CCN(C(=O)c3ccc4c(c3)OCO4)CC2)c(C)c1 | 912 s |
| CCCNC(=O)c1cnn(-c2cc(-c3nc(CC)no3)ccn2)c1C | 849 s |
| CC(C)CNC(=O)c1c2c(nc3ccccc13)CCCC2 | 639 s |
| Cn1c(C2CCN(C(=O)c3cc4c(s3)CCCC4)C2)nc2ccncc21 (centres undefined) | 562 s |
| COc1ccc(NC(=O)N(C)CCc2noc(COc3ccc(F)cc3)n2)c(OC)c1 | 837 s |
| CCOc1ccc(-c2nc(C3CC(=O)N(c4ccc(CC)cc4)C3)no2)cc1OCC (centres undefined) | 1180 s |
| CCOc1ccc(-n2c(CN3CCN(C(=O)NCCC(C)C)CC3)nc3cccnc32)cc1 | 684 s |

| SMILES | RP-LC retention time |
| --- | --- |
| Cn1cc(CN2CCC(C(=O)NC3CCCCC3)CC2)c2cc(Cl)ccc21 | 702 s |
| COCCCNC(=O)C1CCN(c2cnn(Cc3ccccc3)c(=O)c2)CC1 | 651 s |
| COCCN1C(=O)c2cccn2CC1CNC(=O)Cn1nc(C(F)(F)F)cc1C (centres undefined) | 703 s |
| Cc1ccc(NC(=O)N2CCC(C(C)C(=O)Nc3cc(F)ccc3F)CC2)cc1 (centres undefined) | 653 s |
| Cc1c(Cl)cccc1NC(=O)C1CCN(c2c(C(=O)N3CCC(C)CC3)cnc3snc(C)c23)CC1 | 1040 s |
| c1ccc(-c2nc(-c3cnccn3)no2)c(OC2CCN(C3CCSCC3)C2)c1 (centres undefined) | 653 s |
| Cc1cccn2cc(C(=O)NCCC3=CCCCC3)nc12 | 860 s |
| C=CCn1nnc(NCc2ccc(-c3cc(Cl)ccc3Cl)o2)n1 | 1130 s |
| Cc1ccc(NC(=O)C2CCCN(c3ncnc4c3nc3n4CCCCC3)C2)c(Cl)c1 (centres undefined) | 855 s |
| COCCCNC(=O)CN1CC2=C(C1=O)C(c1ccccc1Cl)NC(=O)N2C (centres undefined) | 570 s |
| COc1cccc(Cc2nc(CCS(=O)(=O)c3ccc(F)cc3)no2)c1 | 904 s |
| COc1ccc(C(=O)N2CCC(Oc3cc(N(C)C)ncn3)C2)cc1 (centres undefined) | 650 s |
| CCNc1cc(N2CCCC(CCC(=O)N3CCN(c4ncccn4)CC3)C2)ncn1 (centres undefined) | 624 s |
| CCn1cnc(S(=O)(=O)N2CCC(C(=O)NCc3ccc(OC(C)C)cc3)CC2)c1 | 749 s |
| COc1cc(OC)c(OC)cc1CN1C[C@@H]2C(=O)N(C)C(=O)[C@@H]2C1 | 570 s |
| CCOc1ccc(NC(=O)c2oc3ccc(Br)cc3c2C)c2cccnc12 | 815 s |
| Cc1ccc(Cl)cc1NC(=O)N(C)CCO | 737 s |
| CN1CCN(S(=O)(=O)c2ccc(F)c(Cl)c2)CC1 | 530 s |
| CCCN1C(=O)COc2ccc(-c3csc(NC(=O)COc4ccc(Cl)cc4Cl)n3)cc21 | 1210 s |

Second part, the molecule after the results:

| RP-LC retention time | SMILES |
| --- | --- |
| 839 s | O=C1NC2(CCN(C(=O)Nc3ccccc3F)CC2)N=C1c1cccc(Cl)c1 |
| 983 s | COCCN(Cc1ccc(Cl)cc1)Cc1cc(=O)c2cccc(F)c2[nH]1 |
| 822 s | O=C(c1ccco1)N1CCC(c2nc(-c3ccccc3)no2)C1 (centres undefined) |
| 1010 s | Cc1nn(-c2ccc(Cl)cc2)c2sc(C(=O)O)cc12 |
| 835 s | Cc1ccc2oc(C(=O)Nc3ccnn3Cc3ccccc3)cc(=O)c2c1 |
| 730 s | C[C@H]1CN(C(=O)NCc2ccccc2)C[C@@H]1c1nc(-c2cccnc2)no1 |
| 809 s | O=C(NC1CCc2ccccc21)C1CCN(C(=O)c2ncn3c2COC(c2ccccc2)C3)CC1 (centres undefined) |
| 885 s | Cc1c(S(=O)(=O)N2CCN(c3ccccn3)CC2)cc(-c2nc(-c3ccccc3)cs2)n1C |
| 723 s | Cc1noc(-c2nn(C)c3c2CN(C(=O)Nc2ccc(F)cc2)CC3)n1 |
| 626 s | Cc1ccc(NC(=O)C2CCN(C(=O)c3ncn4c3COC(c3ccccc3)C4)CC2)cc1 (centres undefined) |
| 783 s | CN1C(=O)c2cccnc2Sc2cc(NC(=O)c3c(F)cccc3Cl)ccc21 |
| 980 s | COc1ccc(C2CC(=O)N(c3ccc(F)c(Cl)c3)C(=O)C2)cc1 |
| 876 s | CC(C)NC(=O)c1ccc(OCC2CCCN(C(=O)c3ccccc3Cl)C2)cc1 (centres undefined) |
| 1260 s | Fc1ccc(-c2csc(Cc3nc(-c4ccccc4Cl)no3)n2)cc1 |
| 771 s | COc1ccc(N2CCN(c3nccc4ccc(C(=O)NC5CCCCC5)cc34)CC2)cc1 |
| 697 s | Cc1cccc(NC(=O)Nc2c(-c3ccc(F)cc3)nc3ccccn23)c1C |

| RP-LC retention time | SMILES |
| --- | --- |
| 840 s | COc1ccccc1-c1noc(C2CCCN2C(=O)Nc2ccc(F)cc2F)n1 (centres undefined) |
| 948 s | O=C(COc1ccc(Cl)cc1)Nc1ccc2c(c1)N(C(=O)c1ccco1)CCC2 |
| 781 s | CC1(c2nc(C3CC3)no2)CCCN(C(=O)c2n[nH]c3ccccc23)C1 (centres undefined) |
| 722 s | O=C(c1nccc2ccccc12)N1CCC(OCC2CC2)C1 (centres undefined) |
| 903 s | Cc1ccc(C(=O)NCCc2c[nH]c3ccc(Cl)cc23)cc1-n1nnc2cccnc21 |
| 815 s | O=C(Cc1csc2nc(-c3ccccc3)cn12)NCc1ccc(Br)cc1 |
| 679 s | CCn1cc(-c2ccncc2)cc1C(=O)NCc1ccc(Cl)cc1 |
| 1080 s | Cn1nccc1C(=O)N1CCc2c([nH]c3ccccc23)C1c1ccc(Cl)cc1 (centres undefined) |
| 1030 s | COc1ccc2[nH]c3c(c2c1)CCN1C(=O)N(c2cccc(Cl)c2)C(=O)C31C (centres undefined) |
| 750 s | CCC(C)C(NC(=O)c1cccc(Cl)c1)C(=O)Nc1nc2ccccc2[nH]1 (centres undefined) |
| 1110 s | O=C(Cn1cnc2c(sc3nc(-c4ccccc4)ccc32)c1=O)Nc1ccc(F)c(Cl)c1 |
| 1260 s | CCc1cccc(NC(=O)c2cc3sccc3n2Cc2ccc(F)cc2)c1 |
| 984 s | O=C1COc2ccccc2N1Cc1nc(-c2ccc(F)cc2)no1 |
| 807 s | CC(C)CCNC(=O)CN1C(=O)CCn2nc(-c3cn(C)c4ccccc34)cc21 |
| 576 s | CCCN1CCN(CCCNc2nc(-c3ccc(OC)cc3)nc3ccccc23)CC1 |
| 870 s | O=c1c(NCCc2ccc(Cl)cc2)nccn1-c1ccc2c(c1)OCO2 |

Reference: the METLIN SMRT retention time set (Domingo-Almenara et al. 2019)
